Measured values as given in patent publication US4876266A, “1-aralkyl-2-mercaptoimidazolines as DBH inhibitors” (SmithKline Beckman Corporation, priority 1987, dated 1989).

Assays:
DBH = conditions: significance of the observation is uncertain; cited from earlier work
[1] = molecular target: T1, dopamine-β-hydroxylase (DBH) (Bos taurus, UniProt P15101); assay: in vitro DBH inhibition, conversion of tyramine to octopamine in the presence of DBH, spectrophotometric absorbance at 330 nm; format: biochemical; conditions: concentration of compound at which DBH activity was halved
T1 sequence (P15101 1-610): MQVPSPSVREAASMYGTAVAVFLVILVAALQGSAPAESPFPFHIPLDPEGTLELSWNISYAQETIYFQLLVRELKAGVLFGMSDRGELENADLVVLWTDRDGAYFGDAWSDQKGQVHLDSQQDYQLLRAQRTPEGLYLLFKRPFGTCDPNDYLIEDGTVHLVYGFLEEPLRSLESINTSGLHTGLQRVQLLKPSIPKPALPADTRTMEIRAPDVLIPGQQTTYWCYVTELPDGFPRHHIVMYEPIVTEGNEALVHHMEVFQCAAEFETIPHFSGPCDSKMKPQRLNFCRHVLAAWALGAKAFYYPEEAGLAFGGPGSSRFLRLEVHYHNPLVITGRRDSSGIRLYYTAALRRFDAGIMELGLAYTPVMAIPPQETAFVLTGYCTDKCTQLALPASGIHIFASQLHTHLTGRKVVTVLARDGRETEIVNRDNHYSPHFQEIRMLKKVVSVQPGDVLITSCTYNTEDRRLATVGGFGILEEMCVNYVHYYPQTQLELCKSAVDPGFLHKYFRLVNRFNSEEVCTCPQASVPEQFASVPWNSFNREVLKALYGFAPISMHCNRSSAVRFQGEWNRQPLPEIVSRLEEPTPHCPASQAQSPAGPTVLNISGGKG
Description: Listed in Table III are the compounds of the invention that were tested for in vitro DBH inhibition by a standard procedure for assaying conversion of tyramine to octopamine in the presence of DBH. J. J. Pisano, et al., Biochim. Biophys. Acta, 43, 566-568 (1960). Octopamine was assayed following sodium periodate oxidation to p-hydroxybenzaldehyde by measuring spectrophotometric absorbance at 330 nm.

[2] = tested on: spontaneously hypertensive rats; assay: mean arterial blood pressure in spontaneously hypertensive rats, indwelling cannulae in the tail arteries; format: in vivo, rat; conditions: 50 mg/kg orally; within approximately
Description: Further, spontaneously hypertensive rats were treated with a suspension or solution of 1-(3,5-difluorobenzyl)-2-mercaptoimidazoline at a dose of 50 mg/kg orally and mean arterial blood pressure was monitored for 260 minutes using indwelling cannulae in the tail arteries. […] Maximum blood pressure reduction was approximately 15 to 20 mm Hg.

IC50 [1]	Compound	DBH levels in treated patients (DBH)	time after treatment to significant blood pressure reductions [2]
–	COC(=O)[C@H]1[C@H]2C[C@@H]3c4[nH]c5cc(OC)ccc5c4CCN3C[C@H]2C[C@@H](OC(=O)c2cc(OC)c(OC)c(OC)c2)[C@@H]1OC [reserpine]	lowered DBH levels	–
–	CC(N)(Cc1ccc(O)c(O)c1)C(=O)O (stereo not drawn) [alpha-methyl-DOPA]	lowered DBH levels	–
10 µM	S=C1NCCN1Cc1ccccc1 [1-Benzyl-2-mercaptoimidazoline]	–	–
1.2 µM	Fc1cc(F)cc(CN2CCN=C2S)c1 [1-(3,5-Difluorobenzyl)-2-mercaptoimidazoline]	–	≤ 30 min
